From patent US9943519B2, “Pharmaceutical compounds” (F.HOFFMANN-LA ROCHE AG, priority 2006, dated 2018)

Experiments:
Assay type in all cases: biochemical
Conditions in all cases: ratio of IC50 values, SPA, purified human PI3K isoforms
[1] = biological target: human PI3K isoform beta (p110 beta) (Homo sapiens, UniProt P42338); assay: p110 isoform selectivity scintillation proximity assay (beta)
Method: (§1) Binding of compounds of the invention from above Tables 1a and 1b to purified preparations of p110 isoforms alpha, beta, delta, and gamma was measured by a Scintillation Proximity Assay (SPA) to determine binding activity (IC50 μMol) and selectivity of binding of beta, delta, and gamma isoforms relative to alpha (Example 8). These values are expressed in Table 2.
(§2) The ability of representative compounds from Tables 1a and 1b to inhibit the lipid kinase activity of purified preparations of human PI3K isoforms alpha, beta, delta, and gamma was determined by a radiometric scintillation proximity assay (SPA, GE Healthcare, Amersham Biosciences). Concentration dependent inhibition at 50% (IC50 μMol) was determined for all four isoforms […] and fold potency over beta, delta, and gamma relative to alpha was calculated for a selection of compounds in Table 2. Each compound has a p110 alpha IC50<1 μMol.

[2] = biological target: human PI3K isoform delta (p110 delta) (Homo sapiens, UniProt O00329); assay: p110 isoform selectivity scintillation proximity assay (delta)
Sequence of human PI3K isoform delta (p110 delta) (O00329 whole entry, canonical isoform): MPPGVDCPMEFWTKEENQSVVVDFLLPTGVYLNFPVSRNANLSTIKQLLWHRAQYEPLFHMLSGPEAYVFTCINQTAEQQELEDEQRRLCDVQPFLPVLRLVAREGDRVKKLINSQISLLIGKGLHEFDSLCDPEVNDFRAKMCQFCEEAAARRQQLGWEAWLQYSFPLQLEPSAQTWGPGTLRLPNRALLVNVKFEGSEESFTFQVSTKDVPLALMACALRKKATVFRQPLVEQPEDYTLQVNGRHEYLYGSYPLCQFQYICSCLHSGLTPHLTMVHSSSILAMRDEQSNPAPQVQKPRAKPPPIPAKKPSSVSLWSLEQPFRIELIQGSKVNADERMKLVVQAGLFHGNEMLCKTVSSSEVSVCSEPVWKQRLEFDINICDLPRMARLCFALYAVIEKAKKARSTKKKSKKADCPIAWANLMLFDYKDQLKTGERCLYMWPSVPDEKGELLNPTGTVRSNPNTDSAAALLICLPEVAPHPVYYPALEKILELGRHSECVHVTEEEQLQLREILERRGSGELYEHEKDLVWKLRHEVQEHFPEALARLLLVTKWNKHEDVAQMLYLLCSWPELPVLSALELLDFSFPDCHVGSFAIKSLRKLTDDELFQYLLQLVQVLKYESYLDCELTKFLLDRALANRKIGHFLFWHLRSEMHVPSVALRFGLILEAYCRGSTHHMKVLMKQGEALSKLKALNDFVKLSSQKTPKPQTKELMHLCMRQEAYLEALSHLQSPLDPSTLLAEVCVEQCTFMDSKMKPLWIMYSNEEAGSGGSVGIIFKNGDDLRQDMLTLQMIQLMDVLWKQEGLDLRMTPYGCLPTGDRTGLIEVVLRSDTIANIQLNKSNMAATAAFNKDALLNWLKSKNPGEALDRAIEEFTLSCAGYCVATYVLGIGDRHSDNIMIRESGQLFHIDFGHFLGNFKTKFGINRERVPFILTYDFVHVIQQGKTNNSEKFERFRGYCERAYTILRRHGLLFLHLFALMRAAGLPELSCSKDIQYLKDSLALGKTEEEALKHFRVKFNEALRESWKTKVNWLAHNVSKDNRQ
Sequence of human PI3K isoform delta (p110 delta) (P27986 whole entry partner, canonical isoform): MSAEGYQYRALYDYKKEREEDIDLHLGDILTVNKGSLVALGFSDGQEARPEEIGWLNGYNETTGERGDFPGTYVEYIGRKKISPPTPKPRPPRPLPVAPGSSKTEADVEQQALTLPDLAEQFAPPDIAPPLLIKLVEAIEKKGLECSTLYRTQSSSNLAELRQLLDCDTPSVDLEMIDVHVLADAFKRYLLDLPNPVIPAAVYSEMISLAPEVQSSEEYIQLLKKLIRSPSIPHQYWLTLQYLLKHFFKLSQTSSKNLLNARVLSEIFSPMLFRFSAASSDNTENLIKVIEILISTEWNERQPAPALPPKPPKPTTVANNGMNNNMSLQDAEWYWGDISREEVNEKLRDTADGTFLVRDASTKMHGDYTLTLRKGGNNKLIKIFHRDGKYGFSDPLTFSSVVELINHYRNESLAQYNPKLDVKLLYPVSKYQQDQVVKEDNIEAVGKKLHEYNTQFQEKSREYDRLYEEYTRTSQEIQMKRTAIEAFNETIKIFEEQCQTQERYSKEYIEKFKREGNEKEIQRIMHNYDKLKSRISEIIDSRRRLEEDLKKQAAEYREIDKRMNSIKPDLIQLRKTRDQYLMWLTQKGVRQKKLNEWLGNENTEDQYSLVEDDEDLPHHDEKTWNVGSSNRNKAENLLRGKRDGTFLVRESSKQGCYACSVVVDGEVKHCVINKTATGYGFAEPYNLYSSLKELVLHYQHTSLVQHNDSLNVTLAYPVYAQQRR
Method: as §1, §2

[3] = biological target: human PI3K isoform gamma (p110 gamma) (Homo sapiens, UniProt P48736); assay: p110 isoform selectivity scintillation proximity assay (gamma)
Sequence of human PI3K isoform gamma (p110 gamma) (P48736 whole entry, canonical isoform): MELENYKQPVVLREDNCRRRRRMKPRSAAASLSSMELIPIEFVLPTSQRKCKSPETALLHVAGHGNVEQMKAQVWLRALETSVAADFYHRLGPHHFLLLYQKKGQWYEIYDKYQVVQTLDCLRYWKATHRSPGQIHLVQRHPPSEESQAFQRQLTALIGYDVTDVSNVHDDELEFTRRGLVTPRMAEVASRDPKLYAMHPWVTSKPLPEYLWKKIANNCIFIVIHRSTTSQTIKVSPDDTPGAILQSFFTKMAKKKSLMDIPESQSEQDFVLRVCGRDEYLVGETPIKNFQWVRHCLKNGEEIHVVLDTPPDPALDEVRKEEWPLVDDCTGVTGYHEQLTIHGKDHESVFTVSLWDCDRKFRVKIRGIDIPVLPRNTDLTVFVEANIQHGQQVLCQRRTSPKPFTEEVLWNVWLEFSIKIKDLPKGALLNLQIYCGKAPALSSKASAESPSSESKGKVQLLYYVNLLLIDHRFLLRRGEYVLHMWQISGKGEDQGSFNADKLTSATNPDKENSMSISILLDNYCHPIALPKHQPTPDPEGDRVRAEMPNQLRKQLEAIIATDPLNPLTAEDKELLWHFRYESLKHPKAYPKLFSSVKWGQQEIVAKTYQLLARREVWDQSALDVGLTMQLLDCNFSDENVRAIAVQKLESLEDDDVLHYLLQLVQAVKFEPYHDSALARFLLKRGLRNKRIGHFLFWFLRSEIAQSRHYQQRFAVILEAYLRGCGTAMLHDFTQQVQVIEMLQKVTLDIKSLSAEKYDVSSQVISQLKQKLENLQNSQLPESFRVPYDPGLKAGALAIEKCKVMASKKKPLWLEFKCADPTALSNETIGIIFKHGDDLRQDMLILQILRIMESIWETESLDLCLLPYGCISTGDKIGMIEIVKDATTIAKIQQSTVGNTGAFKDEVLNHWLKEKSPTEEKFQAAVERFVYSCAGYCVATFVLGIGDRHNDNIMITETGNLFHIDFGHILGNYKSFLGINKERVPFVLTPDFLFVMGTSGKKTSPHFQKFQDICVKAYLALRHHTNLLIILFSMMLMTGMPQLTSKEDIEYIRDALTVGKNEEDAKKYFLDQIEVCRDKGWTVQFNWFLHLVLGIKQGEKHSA
Method: as §1, §2

Sequence of human PI3K isoform beta (p110 beta) (P42338 whole entry, canonical isoform): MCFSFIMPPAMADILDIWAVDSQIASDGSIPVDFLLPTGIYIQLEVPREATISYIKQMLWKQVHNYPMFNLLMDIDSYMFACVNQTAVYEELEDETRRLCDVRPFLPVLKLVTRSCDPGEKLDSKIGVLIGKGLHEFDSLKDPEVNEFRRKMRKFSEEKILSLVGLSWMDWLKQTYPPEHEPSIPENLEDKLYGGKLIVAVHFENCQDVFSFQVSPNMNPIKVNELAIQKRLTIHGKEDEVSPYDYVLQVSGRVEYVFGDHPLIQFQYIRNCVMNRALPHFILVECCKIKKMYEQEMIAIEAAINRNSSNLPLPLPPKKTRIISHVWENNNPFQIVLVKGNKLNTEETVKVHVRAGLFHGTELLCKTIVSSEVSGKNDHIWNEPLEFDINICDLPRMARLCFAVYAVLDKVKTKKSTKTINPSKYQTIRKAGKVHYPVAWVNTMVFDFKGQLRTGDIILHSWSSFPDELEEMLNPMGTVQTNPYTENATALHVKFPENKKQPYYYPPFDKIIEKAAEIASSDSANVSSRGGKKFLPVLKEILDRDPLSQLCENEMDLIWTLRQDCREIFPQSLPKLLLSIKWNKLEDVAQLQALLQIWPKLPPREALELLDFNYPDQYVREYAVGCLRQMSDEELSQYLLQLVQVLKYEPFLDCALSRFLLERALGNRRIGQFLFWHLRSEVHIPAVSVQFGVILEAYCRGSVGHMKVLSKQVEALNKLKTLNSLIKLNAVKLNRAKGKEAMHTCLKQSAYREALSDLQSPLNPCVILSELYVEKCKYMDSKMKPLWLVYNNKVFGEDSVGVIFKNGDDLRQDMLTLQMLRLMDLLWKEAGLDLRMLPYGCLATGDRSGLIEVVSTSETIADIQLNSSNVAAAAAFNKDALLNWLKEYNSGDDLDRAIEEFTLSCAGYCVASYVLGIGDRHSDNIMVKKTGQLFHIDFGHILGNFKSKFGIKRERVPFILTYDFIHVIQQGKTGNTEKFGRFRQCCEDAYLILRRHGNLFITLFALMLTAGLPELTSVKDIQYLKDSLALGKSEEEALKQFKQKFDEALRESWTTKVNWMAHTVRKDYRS
Sequence of human PI3K isoform beta (p110 beta) (P27986 whole entry partner, canonical isoform): as the sequence (P27986 whole entry partner, canonical isoform) above

Row | SMILES | alpha/beta (fold potency over beta relative to alpha) [1] [fold] | alpha/delta (fold potency over delta relative to alpha) [2] [fold] | alpha/gamma (fold potency over gamma relative to alpha) [3] [fold]
1 | CS(=O)(=O)N1CCN(Cc2cc3nc(-c4cccc5[nH]ncc45)nc(N4CCOCC4)c3o2)CC1 [Compound 2, 2-(1H-indazol-4-yl)-6-((4-methylsulfonylpiperazin-1-yl)methyl)-4-morpholinofuro[3,2-d]pyrimidine] | >10 | <10 | >10
2 | C[C@H]1CN(Cc2cc3nc(-c4cccc5[nH]ncc45)nc(N4CCOCC4)c3s2)CCN1S(C)(=O)=O [Compound 4, 2-(1H-indazol-4-yl)-6-(((3S,5R)-3-methyl-4-methylsulfonylpiperazin-1-yl)methyl)-4-morpholinothieno[3,2-d]pyrimidine] | >10 | <10 | >10
3 | C[C@@H]1CN(S(C)(=O)=O)C[C@H](C)N1Cc1cc2nc(-c3cccc4[nH]ncc34)nc(N3CCOCC3)c2s1 [Compound 7, 6-(((2R,6S)-4-methylsulfonyl-2,6-dimethylpiperazin-1-yl)methyl)-2-(1H-indazol-4-yl)-4-morpholinothieno[3,2-d]pyrimidine] | >10 | <10 | >10
4 | Cc1nc2ccccc2n1-c1nc(N2CCOCC2)c2cc(CN3CCN(S(C)(=O)=O)CC3)sc2n1 [Compound 16, 2-(2-methyl-1H-benzo[d]imidazol-1-yl)-6-((4-methylsulfonylpiperazin-1-yl)methyl)-4-morpholinothieno[2,3-d]pyrimidine] | >10 | <10 | >10
5 | Cc1c(CN2CCC(S(C)(=O)=O)CC2)sc2c(N3CCOCC3)nc(-c3cccc4[nH]ncc34)nc12 [Compound 23, 2-(1H-indazol-4-yl)-7-methyl-6-((4-(methylsulfonyl)piperidin-1-yl)methyl)-4-morpholinothieno[3,2-d]pyrimidine] | >10 | <10 | >10
6 | CN1CCN(S(=O)(=O)C2CCN(Cc3cc4nc(-c5cccc6[nH]ncc56)nc(N5CCOCC5)c4s3)CC2)CC1 [Compound 24, 2-(1H-indazol-4-yl)-6-((4-N-4-methylpiperazinosulfonylpiperidin-1-yl)methyl)-4-morpholinothieno[3,2-d]pyrimidine] | >10 | <10 | >10
7 | CN(C)S(=O)(=O)C1CCN(Cc2cc3nc(-c4cccc5[nH]ncc45)nc(N4CCOCC4)c3s2)CC1 [Compound 27, 2-(1H-indazol-4-yl)-6-((4-N,N-dimethylaminosulfonylpiperidin-1-yl)methyl)-4-morpholinothieno[3,2-d]pyrimidine] | >10 | <10 | >10
8 | O=S(=O)(N1CCOCC1)N1CCN(Cc2cc3nc(-c4cccc5[nH]ncc45)nc(N4CCOCC4)c3s2)CC1 [Compound 28, 2-(1H-indazol-4-yl)-6-((4-N-morpholinosulfonylpiperazin-1-yl)methyl)-4-morpholinothieno[3,2-d]pyrimidine] | >10 | <10 | >10
9 | Cc1c(CN2CCN(S(C)(=O)=O)CC2)sc2c(N3CCOCC3)nc(-c3cccc4[nH]ncc34)nc12 [Compound 29, 2-(1H-indazol-4-yl)-7-methyl-6-((4-(methylsulfonyl)piperazin-1-yl)methyl)-4-morpholinothieno[3,2-d]pyrimidine] | >10 | <10 | >10
10 | COCCN(Cc1cc2nc(-c3cccc4[nH]ncc34)nc(N3CCOCC3)c2s1)C1CCN(S(C)(=O)=O)CC1 [Compound 34, N-((2-(1H-indazol-4-yl)-4-morpholinothieno[3,2-d]pyrimidin-6-yl)methyl)-N-(2-methoxyethyl)-1-methylsulfonylpiperidin-4-amine] | >10 | <10 | >10

More lines, now with the values ahead:

Row | alpha/beta (fold potency over beta relative to alpha) [1] [fold] | alpha/delta (fold potency over delta relative to alpha) [2] [fold] | alpha/gamma (fold potency over gamma relative to alpha) [3] [fold] | SMILES
11 | <10 | <10 | >10 | CC(=O)N1CCN(Cc2cc3nc(-c4cccc5[nH]ncc45)nc(N4CCOCC4)c3s2)CC1 [Compound 54, 1-(4-((2-(1H-indazol-4-yl)-4-morpholinothieno[3,2-d]pyrimidin-6-yl)methyl)piperazin-1-yl)ethanone]
12 | >10 | <10 | >10 | CS(=O)(=O)N1CCN(Cc2cc3c(N4CCOCC4)nc(-c4cccc5[nH]ncc45)nc3s2)CC1 [Compound 57, 2-(1H-indazol-4-yl)-6-((4-methylsulfonylpiperazin-1-yl)methyl)-4-morpholinothieno[2,3-d]pyrimidine]
13 | >10 | <10 | >10 | CN(C1CCN(Cc2cc3nc(-c4cccc5[nH]ncc45)nc(N4CCOCC4)c3s2)C1)S(C)(=O)=O (stereo not drawn) [Compound 58, 1-((2-(1H-indazol-4-yl)-4-morpholinothieno[3,2-d]pyrimidin-6-yl)methyl)-N-methyl-N-methylsulfonylpyrrolidin-3-amine]
14 | >10 | <10 | >10 | CN(Cc1cc2nc(-c3cccc4[nH]ncc34)nc(N3CCOCC3)c2s1)CC1CCCN1S(C)(=O)=O (stereo not drawn) [Compound 59, N-((2-(1H-indazol-4-yl)-4-morpholinothieno[3,2-d]pyrimidin-6-yl)methyl)-N-methyl(1-methylsulfonylpyrrolidin-2-yl)methanamine]
15 | >10 | <10 | >10 | CN(Cc1cc2nc(-c3cccc4[nH]ncc34)nc(N3CCOCC3)c2s1)C1CCN(S(C)(=O)=O)C1 (stereo not drawn) [Compound 60, N-((2-(1H-indazol-4-yl)-4-morpholinothieno[3,2-d]pyrimidin-6-yl)methyl)-N-methyl-(1-methylsulfonylpyrrolidin)-3-amine]
16 | >10 | <10 | >10 | c1cc(-c2nc(N3CCOCC3)c3sc(CN4CCC(Cn5cccn5)CC4)cc3n2)c2cn[nH]c2c1 [Compound 62, 6-((4-((1H-pyrazol-1-yl)methyl)piperidin-1-yl)methyl)-2-(1H-indazol-4-yl)-4-morpholinothieno[3,2-d]pyrimidine]
17 | <10 | <10 | >10 | OC1CCCN(Cc2cc3nc(-c4cccc5[nH]ncc45)nc(N4CCOCC4)c3s2)C1 (stereo not drawn) [Compound 65, 1-((2-(1H-indazol-4-yl)-4-morpholinothieno[3,2-d]pyrimidin-6-yl)methyl)piperidin-3-ol]
18 | <10 | <10 | >10 | C[C@H](O)C(=O)N1CCN(Cc2cc3nc(-c4cccc5[nH]ncc45)nc(N4CCOCC4)c3s2)CC1 [Compound 66, (S)-1-(4-((2-(1H-indazol-4-yl)-4-morpholinothieno[3,2-d]pyrimidin-6-yl)methyl)piperazin-1-yl)-2-hydroxypropan-1-one]
19 | >10 | >10 | >10 | CS(=O)(=O)N1CCN(Cc2cc3nc(-c4cnc5ccccc5c4)nc(N4CCOCC4)c3s2)CC1 [Compound 89, 3-[6-(4-Methanesulfonyl-piperazin-1-ylmethyl)-4-morpholin-yl-thieno[3,2-d]pyrimidin-2-yl]-quinoline]
20 | >10 | <10 | >10 | CS(=O)(=O)N1CCN(Cc2cc3nc(-c4cncc5ccccc45)nc(N4CCOCC4)c3s2)CC1 [Compound 90, 4-[6-(4-Methanesulfonyl-piperazin-1-ylmethyl)-4-morpholin-4-yl-thieno[3,2-d]pyrimidin-2-yl]-isoquinoline]
21 | >10 | <10 | >10 | CS(=O)(=O)N1CCN(Cc2cc3c(N4CCOCC4)nc(-c4cncc5ccccc45)nc3s2)CC1 [Compound 94, 4-[6-(4-Methanesulfonyl-piperazin-1-ylmethyl)-4-morpholin-4-yl-thieno[2,3-d]pyrimidin-2-yl]-isoquinoline]
